Source: patent publication US20250381206A1, “INVARIANT NATURAL KILLER T-CELL ACTIVATORS” (Deciduous Therapeutics, Inc., priority 2022, published 2025)

Key:
[1] = target: T1, human iTCR (Homo sapiens, UniProt P15813); assay: In vitro activation of human iTCR through a Jurkat reporter cell line (JiNKT, GFP under NFKB promoter) co-cultured with compound-loaded BWSTIM cells; assay type: cell-based; settings: percentage of JiNKT cells expressing high levels of GFP by flow cytometry; BWSTIM loaded 4 hours, co-cultured 18 to 24 hours
T1 sequence (P15813 1-335): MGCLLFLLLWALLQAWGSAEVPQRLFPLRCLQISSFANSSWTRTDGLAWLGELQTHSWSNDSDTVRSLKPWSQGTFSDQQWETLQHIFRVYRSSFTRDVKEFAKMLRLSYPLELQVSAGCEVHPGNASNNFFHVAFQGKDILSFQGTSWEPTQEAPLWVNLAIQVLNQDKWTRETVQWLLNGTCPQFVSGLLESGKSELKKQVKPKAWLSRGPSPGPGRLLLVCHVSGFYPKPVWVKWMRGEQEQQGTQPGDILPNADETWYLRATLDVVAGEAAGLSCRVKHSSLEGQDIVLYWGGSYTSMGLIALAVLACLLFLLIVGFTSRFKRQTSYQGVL
Excerpt: To determine the human iTCR activation potential induced by the compounds described herein, a Jurkat cell line (JiNKT) was transfected with the human iTCR, and GFP under the NFKB promoter (cell line licensed from the Medical University of Vienna). A BWS147 cell line (BWSTIM) was also transfected with CD80 and CD1d to act as the antigen-presenting cell.
Any of the compounds provided herein may be used in this example, including the exemplary compounds of Tables 1 and 2. Test compounds were dissolved in DMSO at a 5 mg/mL stock solution. BWSTIM cells were loaded with test compounds at varying concentrations for 4 hours at 37° C. at a concentration of 20k cells/well in 200 μL of media in a u-bottom 96 well dish. BWSTIM cells were washed 2× with media, then incubated with JiNKT cells at a concentration of 80k cells/well in a u-bottom 96 well dish. Cells were co-cultured for 18 to 24 hours. The percentage of cells expressing high levels of GFP was measured through flow cytometry (after gating out the mCD45+ BWSTIM cells).

[2] = tested on: C57BL/6J mice; assay: In vivo IFNγ activation and iNKT cell expansion in C57BL/6J mice; set-up: species or system mouse; settings: 2 μg I.P.; for Naïve Mouse In Vivo IFNγ: average serum IFNγ by ELISA, twenty hours post-injection, eight weeks old C57BL/6J mice; for Naïve Mouse In Vivo CD3 + iNKT + cells (Fold increase over veh control): iNKT cells within splenocytes by flow cytometry, four days post-injection, C57BL/6J mice
Experimental: Any of the compounds provided herein may be used in this example, including the exemplary compounds of Tables 1 and 2. To determine the expansion induced by the compounds described herein, test compounds were injected into C57BL/6J mice. Serum IFNγ levels and the expansion of iNKT cells within splenocytes was measured 4 days post-IP injection.
Eight weeks old C57BL/6J mice were injected (I.P.) with 2 μg of test compounds. The test compounds were either dissolved in DMSO at a 5 mg/mL stock solution, or formulated into liposomes through thin-film rehydration, then extrusion through 200 nm filters. Liposome-based formulations were constructed using soy phosphatidylcholine, cholesterol, and test compound in a 2:1:0.15 ratio. Twenty hours post-injection, blood was collected from the tail to measure the level of serum IFNγ using an ELISA kit from Biolegend. Four days post-injection, the mice were sacrificed and the splenocytes were isolated. The percentage of iNKT cells within the spleens was measured using flow cytometry, selecting for live cells and mouse CD1d-α-GalCer tetramer+ cells.
In response to injection of several exemplary compounds, the average serum IFNγ collected and fold change of cells are shown in Table B4 below.

SMILES | EC50 [1] | Naïve Mouse In Vivo IFNγ [2] | Naïve Mouse In Vivo CD3 + iNKT + cells (Fold increase over veh control) [2]
CCCCCCCCCCCCCCC[C@@H](O)[C@H](CO[C@H]1O[C@H](CO)[C@H](O)[C@H](O)[C@H]1O)NC(=O)CCCCCCCCCCCCCCCCCCCCCCCC12CC(F)(C1)C2 [Compound I-2, 24-(3-fluorobicyclo[1.1.1]pentan-1-yl)-N-((2S,3R)-3-hydroxy-1-(((2S,3R,4S,5R,6R)-3,4,5-trihydroxy-6-(hydroxymethyl)tetrahydro-2H-pyran-2-yl)oxy)octadecan-2-yl)tetracosanamide] | 1.78 µM | 8128 ± 1209 pg/mL | 2.21 ± 0.38 Fold increase over veh control
CCCCCCCCCCCCCCC[C@@H](O)[C@H](CO[C@H]1O[C@H](COC(=O)CCc2ccccc2)[C@H](O)[C@H](O)[C@H]1O)NC(=O)CCCCCCCCCCCCCCCCCCCCCCCC1CCS(=O)(=O)CC1 [Compound I-6, ((2R,3R,4S,5R,6S)-6-(((2S,3R)-2-(24-(1,1-dioxidotetrahydro-2H-thiopyran-4-yl)tetracosanamido)-3-hydroxyoctadecyl)oxy)-3,4,5-trihydroxytetrahydro-2H-pyran-2-yl)methyl 3-phenylpropanoate] | 0.797 µM | 43930 ± 43396 pg/mL | 1.89 ± 0.44 Fold increase over veh control

Second part, led by results:

EC50 [1] | SMILES | Naïve Mouse In Vivo IFNγ [2] | Naïve Mouse In Vivo CD3 + iNKT + cells (Fold increase over veh control) [2]
0.908 µM | CCCCCCCCCCCCCC[C@@H](O)[C@@H](O)[C@H](CO[C@H]1O[C@H](COC(=O)CCc2ccccc2)[C@H](O)[C@H](O)[C@H]1O)NC(=O)CCCCCCCCCCCCCCCCCCCCCCCC12CC(F)(C1)C2 [Compound I-3, ((2R,3R,4S,5R,6S)-6-(((2S,3S,4R)-2-(24-(3-fluorobicyclo[1.1.1]pentan-1-yl)tetracosanamido)-3,4-dihydroxyoctadecyl)oxy)-3,4,5-trihydroxytetrahydro-2H-pyran-2-yl)methyl 3-phenylpropanoate] | 8506 ± 790 pg/mL | 1.12 ± 0.19 Fold increase over veh control
0.621 µM | CCCCCCCCCCCCCCC[C@@H](O)[C@H](CC[C@H]1O[C@H](COC(=O)CCc2ccccc2)[C@H](O)[C@H](O)[C@H]1O)NC(=O)CCCCCCCCCCCCCCCCCCCCCCCC12CC(F)(C1)C2 [Compound I-4, ((2R,3R,4R,5R,6R)-6-((3S,4R)-3-(24-(3-fluorobicyclo[1.1.1]pentan-1-yl)tetracosanamido)-4-hydroxynonadecyl)-3,4,5-trihydroxytetrahydro-2H-pyran-2-yl)methyl 3-phenylpropanoate] | 28208 ± 4723 pg/mL | 4.09 ± 0.78 Fold increase over veh control
1.18 µM | CCCCCCCCCCCCCC[C@@H](O)[C@@H](O)[C@H](CC[C@H]1O[C@H](CO)[C@H](O)[C@H](O)[C@H]1O)NC(=O)CCCCCCCCCCCCCCCCCCCCCCCC12CC(F)(C1)C2 [Compound I-7, N-((3S,4S,5R)-4,5-dihydroxy-1-((2R,3R,4R,5R,6R)-3,4,5-trihydroxy-6-(hydroxymethyl)tetrahydro-2H-pyran-2-yl)nonadecan-3-yl)-24-(3-fluorobicyclo[1.1.1]pentan-1-yl)tetracosanamide] |  | 
